Experimental data: ChEMBL document CHEMBL1123893, “Synthesis and physicochemical properties of thiadiazolo[3,2-a]pyrimidinesulfonamides and thiadiazolo[3,2-a]triazinesulfonamides as candidates for topically effective carbonic anhydrase inhibitors” (J Med Chem, 1987)
In brackets after ≈: the same amount, converted by molar mass.

Tests used:
[1] = molecular target: Carbonic anhydrase
Description: Evaluated for its activity against carbonic anhydrase (CA) in anesthetized rabbits

[2] = organism: Oryctolagus cuniculus
[3] = organism: Oryctolagus cuniculus; settings: rabbit, in vivo
Description: Evaluated for first order rate constant (Kin) for transcorneal penetration in anesthetized rabbits

[4] = octanol/water, pH 7.4
Description: Evaluated for lipid solubility measured as partition coefficient at a pH 7.4 (CHCl3/buffer)

[5] = physchem
Description: Compound was evaluated for its solubility in water

[6] = physchem; settings: buffer
Description: Evaluated for sulfonamide pKa, free acid water solubility

[7] = organism: Oryctolagus cuniculus; assay: Evaluated for effect on intraocular pressure(IOP) in rabbit after 1 hour; assay type: functional, Eye

| Compound | I50 [1] [nM] | Effect [2] [mmHg] | further results |
| --- | --- | --- | --- |
| NS(=O)(=O)C1=NN2CCS(=O)(=O)N=C2S1 | 14 | 0 |  |
| CC(=O)/N=c1/sc(S(N)(=O)=O)nn1C [METHAZOLAMIDE] |  | -0.6 | Kin [3]: 0.006 h⁻¹; log D [4]: 0.06; solubility ([5]; buffer): 5 mM (≈ 1180 µg/mL) |
| NS(=O)(=O)C1=NN2C(=NC(=O)NS2(=O)=O)S1 | 50 | 0 |  |
| Cn1c(=O)nc2sc(S(N)(=O)=O)nn2c1=O | 20 | -1 |  |
| COc1cc(=O)nc2sc(S(N)(=O)=O)nn12 | 50 | 0 |  |
| NS(=O)(=O)c1nn2c(=O)[nH]c(=O)nc2s1 | 20 | 0 | solubility ([5]; water): 4 mM (≈ 997 µg/mL); pKa [6]: 8.3 |
| Cn1nc(S(N)(=O)=O)s/c1=N\C(=O)C(F)(F)F |  |  | Effect [7]: -3.1 mmHg; Kin [3]: 0.014 h⁻¹; solubility ([5]; water): 8 mM (≈ 2320 µg/mL); pKa [6]: 6.6 |

Now from value to compound, other results behind:

| I50 [1] [nM] | Compound | Effect [2] [mmHg] | further results |
| --- | --- | --- | --- |
| 20 | CCn1c(=O)nc2sc(S(N)(=O)=O)nn2c1=O | 0 |  |
| 37 | NS(=O)(=O)c1nn2c(O)cc(=O)nc2s1 |  |  |
| 18 | NS(=O)(=O)c1nn2c(=O)n(CCCl)c(=O)nc2s1 | 0 |  |
